37 molecules from patent US6525059B1, “Substituted pyrazoles as p38 kinase inhibitors” (G. D. Searle & Company, priority 1998, dated 2003) can be followed below.

In test [1] the target is T1, human p38 kinase alpha (Homo sapiens, UniProt Q16539).
T1 construct: The coding region of the human p38a cDNA was obtained by PCR-amplification from RNA isolated from the human monocyte cell line THP.1; GST (N); made in house; host or cells: E. coli DH10B
Kind of test: p38 kinase in vitro assay, phosphorylation of biotinylated PHAS-I with gamma 32P-ATP. The class given is biochemical. The conditions noted are these: for inhibition at 1 µM / inhibition at 10 µM: read-out: P38 alpha kinase % inhib @ conc. The essentials: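 MKK6-activated human p38α phosphorylates biotinylated PHAS-I with γ-32P-ATP in 25 mM HEPES pH 7.5, 10 mM Mg acetate, 50 μM unlabeled ATP, 1% DMSO, 30 °C for 1 h or overnight. Compounds at 100–0.001 μM (10-fold steps, triplicate); substrate captured on streptavidin filter plates and counted by scintillation.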

For test [2], the system named is TNF-α. Kind of test: LPS stimulation of TNF production by U937 cells. Format: cell-based, human. The settings on record: for inhibition at 1 µM / IC50: Homo sapiens; for inhibition at 1 µM: U-937, @ 1.0 uM, read-out: U937 Cell % inhib @ conc.; for U937 Cell % inhib @ conc.: @ 1.0 uM. The essentials:
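PMA-differentiated human U937 cells (20 ng/ml PMA, 24 h, then 24-48 h rest) at 2 million cells/ml, 0.1% DMSO final, stimulated with E. coli LPS (100 ng/ml final) for 4 h at 37° C. TNF-α in medium measured by ELISA; IC50 in μM.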

The mark [3] stands for this setting: read-out: P38 alpha kinase IC50.
Where [4] appears, read: U-937, TNF production, LPS-stimulated human U937 cells, read-out: U937 Cell IC50.
[5] abbreviates: p38α in vitro, PHAS-I assay procedure, read-out: p38^1 IC50.
[6] abbreviates: U-937, LPS-stimulated U937 cells, read-out: U937 IC50.

Like-named read-outs stand apart in the source and are kept apart here.

Usually IC50 stands for the concentration that gives 50% inhibition.

T1 sequence (Q16539 whole entry): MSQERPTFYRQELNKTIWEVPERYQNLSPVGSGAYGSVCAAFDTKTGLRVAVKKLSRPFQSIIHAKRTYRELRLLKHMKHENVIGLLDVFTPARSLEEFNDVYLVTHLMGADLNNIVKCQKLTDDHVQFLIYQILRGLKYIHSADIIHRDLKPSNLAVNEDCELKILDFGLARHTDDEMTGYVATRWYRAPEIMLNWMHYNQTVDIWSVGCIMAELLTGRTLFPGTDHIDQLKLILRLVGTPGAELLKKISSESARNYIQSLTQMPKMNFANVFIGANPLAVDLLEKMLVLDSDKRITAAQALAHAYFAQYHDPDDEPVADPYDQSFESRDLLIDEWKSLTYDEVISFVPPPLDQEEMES

On to `O=C(NCc1[nH]nc(-c2ccc(F)cc2)c1-c1ccncc1)c1ccc(Cl)cc1` [Example B-0268], for which the IC50 in test [1] (setting [3]) is 3390 nM. Besides, in test [2], the inhibition at 1 µM is 19%.

On to `NC(=O)NCc1[nH]nc(-c2ccc(F)cc2)c1-c1ccncc1` [Example B-0214], for which the IC50 in test [1] (setting [3]) is 160 nM. Further, the inhibition at 1 µM in test [2] turned out to be 50%.

As to `CCS(=O)(=O)NCc1[nH]nc(-c2ccc(F)cc2)c1-c1ccncc1` [Example B-0105], the inhibition at 1 µM in test [1] is 78%. In test [2] (setting [4]), the IC50 came to 5000 nM.

Regarding `C[C@@H](NS(=O)(=O)c1cccc(C(F)(F)F)c1)c1[nH]nc(-c2ccc(F)cc2)c1-c1ccncc1` [Example B-0471], the IC50 in test [1] (setting [3]) stood at 27 nM. Besides, the inhibition at 1 µM in test [2] came to 97%.

With `C[C@@H](NC(=O)Nc1cccc(F)c1)c1[nH]nc(-c2ccc(F)cc2)c1-c1ccncc1` [Example B-0418], the IC50 in test [1] (setting [3]) was 220 nM. In addition, the inhibition at 1 µM in test [2] is 27%.

Consider `Cc1ccc(S(C)(=O)=O)cc1S(=O)(=O)NCc1[nH]nc(-c2ccc(F)cc2)c1-c1ccncc1` [Example B-0260], for which, in test [1] (setting [3]), the IC50 worked out at 560 nM. In test [2], the inhibition at 1 µM amounted to 23%.

Regarding `CCCCOc1ccc(S(=O)(=O)NCc2[nH]nc(-c3ccc(F)cc3)c2-c2ccncc2)cc1` [Example B-0129], the inhibition at 1 µM stood at 51% in test [1] and 31% in test [2].

With `O=C(NCc1[nH]nc(-c2ccc(F)cc2)c1-c1ccncc1)c1c(F)ccc(F)c1F` [Example B-0278], the IC50 in test [1] (setting [3]) was found to be 1260 nM. In addition, in test [2], the inhibition at 1 µM came out at 36%.

Take `O=C(NCc1[nH]nc(-c2ccc(F)cc2)c1-c1ccncc1)c1ccc(Cl)c(Cl)c1` [Example B-0071]: the figures for the inhibition at 1 µM in test [1] and in test [2] were 86% and 31%, respectively.

Turning to `Cc1ccc(S(=O)(=O)N[C@H](C)c2[nH]nc(-c3ccc(F)cc3)c2-c2ccncc2)cc1` [Example B-0399], the half-inhibitory concentration (IC50) in test [1] (setting [3]) worked out at 140 nM. Moreover, the inhibition at 1 µM in test [2] turned out to be 39%.

`COc1ccc(NC(=O)NCc2[nH]nc(-c3ccc(F)cc3)c2-c2ccncc2)cc1` [Example B-0190]: in test [1], the inhibition at 10 µM is 59%. The inhibition at 1 µM in test [2] amounted to 31%.

Regarding `O=S(=O)(NCc1[nH]nc(-c2ccc(F)cc2)c1-c1ccncc1)c1cccc(C(F)(F)F)c1` [Example B-0247], the IC50 in test [1] (setting [3]) came to 82 nM. Further, the inhibition at 1 µM in test [2] is 75%.

As to `COc1ccc(C(=O)NCc2[nH]nc(-c3ccc(F)cc3)c2-c2ccncc2)cc1OC` [Example B-0068], the inhibition at 1 µM in test [1] worked out at 72%; in test [2] it was 22%.

`C[C@@H](NC(=O)C(C)(C)C)c1[nH]nc(-c2ccc(F)cc2)c1-c1ccncc1` [Example B-0424]: the IC50 in test [1] (setting [3]) is 83 nM. For the same molecule, the inhibition at 1 µM in test [2] came out at 32%.

Regarding `C#CCNc1[nH]nc(-c2ccc(F)cc2)c1-c1ccncc1` [Example A-288, 5-(4-fluorophenyl)-N-2-propynyl-4-(4-pyridinyl)-1H-pyrazol-3-amine], the IC50 is 17 nM in test [1] (setting [5]) and 300 nM in test [2] (setting [6]).

Take `CCOC(=O)C(CC(C)C)NC(=O)NCc1[nH]nc(-c2ccc(F)cc2)c1-c1ccncc1` (centres unmarked) [Example B-0189]: the inhibition at 10 µM in test [1] is 42%. In test [2], the inhibition at 1 µM was 9%.

With `O=S(=O)(NCc1[nH]nc(-c2ccc(F)cc2)c1-c1ccncc1)c1ccc(-c2ccccn2)s1` [Example B-0258], the IC50 in test [1] (setting [3]) came out at 370 nM. Moreover, the inhibition at 1 µM in test [2] came to 63%.

Regarding `C[C@@H](NC(=O)Nc1ccc(F)cc1)c1[nH]nc(-c2ccc(F)cc2)c1-c1ccncc1` [Example B-0406], the IC50 in test [1] (setting [3]) is 540 nM. Besides, in test [2], the inhibition at 1 µM was found to be 35%.

For the molecule `O=S(=O)(NCc1[nH]nc(-c2ccc(F)cc2)c1-c1ccncc1)c1c(Cl)cccc1Cl` [Example B-0233], the IC50 in test [1] (setting [3]) was 95 nM. For the same molecule, the inhibition at 1 µM in test [2] is 43%.

Regarding `O=S(=O)(NCc1[nH]nc(-c2ccc(F)cc2)c1-c1ccncc1)c1ccc(Cl)cc1` [Example B-0225], the IC50 in test [1] (setting [3]) was found to be 47 nM. Further, the inhibition at 1 µM in test [2] came to 37%.

On to `O=C(NCc1[nH]nc(-c2ccc(F)cc2)c1-c1ccncc1)Nc1ccccc1OC(F)(F)F` [Example B-0185], for which the inhibition at 10 µM in test [1] was determined as 65%. For the same molecule, the inhibition at 1 µM in test [2] was 25%.

`CCCS(=O)(=O)NC(Cc1ccccc1)c1[nH]nc(-c2ccc(F)cc2)c1-c1ccncc1` (centres unmarked) [Example B-0760]: the IC50 in test [1] (setting [3]) was determined as 10 nM. Further, the “U937 Cell % inhib @ conc.” value in test [2] turned out to be 13.0% @ 1.0 uM.

Consider `COc1ccc(S(=O)(=O)N[C@H](C)c2[nH]nc(-c3ccc(F)cc3)c2-c2ccncc2)cc1OC` [Example B-0400], for which the IC50 in test [1] (setting [3]) stood at 160 nM. Also, the inhibition at 1 µM in test [2] was 25%.

Regarding `CC(=O)O[C@@H](C)C(=O)N[C@H](C)c1[nH]nc(-c2ccc(F)cc2)c1-c1ccncc1` [Example B-0365], the IC50 in test [1] (setting [3]) is 960 nM. The inhibition at 1 µM in test [2] turned out to be 27%.

Regarding `Fc1ccc(-c2n[nH]cc2-c2ccnc3ccccc23)cc1` [Example A-291], the IC50 amounted to 388 nM in test [1] (setting [5]) and 1130 nM in test [2] (setting [6]).

Regarding `O=[N+]([O-])c1cccc(S(=O)(=O)NCc2[nH]nc(-c3ccc(F)cc3)c2-c2ccncc2)c1` [Example B-0114], the inhibition at 1 µM in test [1] was 45%. Further, the IC50 in test [2] (setting [4]) was found to be 3920 nM.

For `C[C@@H](NC(=O)c1ccccc1)c1[nH]nc(-c2ccc(F)cc2)c1-c1ccncc1` [Example B-0375], the IC50 in test [1] (setting [3]) was found to be 1000 nM. The inhibition at 1 µM in test [2] was found to be 19%.

Take `Cc1ccc(C(=O)NC(C)c2[nH]nc(-c3ccc(F)cc3)c2-c2ccncc2)cc1` (centres unmarked) [Example B-0671]: in test [1] (setting [3]), the IC50 was determined as 6380 nM. In test [2], the “U937 Cell % inhib @ conc.” value is 36.0% @ 1.0 uM.

Consider `C#CCn1cc(-c2ccncc2)c(-c2ccc(F)cc2)n1` [Example A-294, 4-[3-(4-fluorophenyl)-1-(2-propynyl)-1H-pyrazol-4-yl]pyridine], for which the IC50 came to 15 nM in test [1] (setting [5]) and 500 nM in test [2] (setting [6]).

Regarding `O=C(NCc1[nH]nc(-c2ccc(F)cc2)c1-c1ccncc1)Nc1ccccc1` [Example B-0175], in test [1], the inhibition at 10 µM turned out to be 41%. In addition, the inhibition at 1 µM in test [2] turned out to be 31%.

For the molecule `O=C(NCc1[nH]nc(-c2ccc(F)cc2)c1-c1ccncc1)Nc1ccc(C(F)(F)F)cc1` [Example B-0163], the inhibition at 10 µM in test [1] is 20%. In addition, the inhibition at 1 µM in test [2] stood at 10%.

As for `COc1ccccc1C(=O)N[C@H](C)c1[nH]nc(-c2ccc(F)cc2)c1-c1ccncc1` [Example B-0367], in test [1] (setting [3]), the IC50 amounted to 1000 nM. Also, the inhibition at 1 µM in test [2] was found to be 23%.

Consider `O=S(=O)(NCc1[nH]nc(-c2ccc(F)cc2)c1-c1ccncc1)c1ccccc1C(F)(F)F` [Example B-0236], for which, in test [1] (setting [3]), the IC50 amounted to 77 nM. In test [2], the inhibition at 1 µM is 46%.

Regarding `O=S(=O)(NCc1[nH]nc(-c2ccc(F)cc2)c1-c1ccncc1)c1ccc(S(=O)(=O)c2ccccc2)s1` [Example B-0263], the IC50 in test [1] (setting [3]) is 620 nM. Also, in test [2], the inhibition at 1 µM came out at 64%.

Consider `Cc1ccc(C(=O)N[C@H](C)c2[nH]nc(-c3ccc(F)cc3)c2-c2ccncc2)cc1` [Example B-0374], for which, in test [1] (setting [3]), the IC50 came out at 1380 nM. Besides, the “U937 Cell % inhib @ conc.” value in test [2] came out at 12.0% @ 1.0 uM.

Take `C[C@@H](NS(=O)(=O)C(F)(F)F)c1[nH]nc(-c2ccc(F)cc2)c1-c1ccncc1` [Example B-0391]: the IC50 in test [1] (setting [3]) was 860 nM. For the same molecule, the inhibition at 1 µM in test [2] turned out to be 18%.

As for `COC(=O)CCCCCCC(=O)NCc1[nH]nc(-c2ccc(F)cc2)c1-c1ccncc1` [Example B-0088], the inhibition at 1 µM worked out at 96% in test [1] and 9% in test [2].
